Measured values taken from patent US5532259A, “Isoxazole-4-carboxamides and hydroxyalkylidenecyanoacetamides, pharmaceuticals containing these compounds and their use” (Hoechst Aktiengesellschaft, priority 1990, dated 1996).

Key:
[1] = Acute toxicity on oral administration, rat; conditions: in vivo, SD rat, 3 weeks, Litchfield and Wilcoxon
Protocol: (§1) Acute toxicity on oral administration
(§2) Compound 1 was administered orally to the mice or rats to determine the acute toxicity.
(§3) The LD50 values were determined according to Litchfield and Wilcoxon.
(§4) The weight of the NMRI mice (NMRI : Naval Medical Research Institute) is 20 to 25 g and that of the SD rats (SD: Sprague-Dawley) is 120 to 165 g. The mice were fasted for about 18 hours before the test. They are fed normally again 5 hours after administration of the substances tested. After 3 weeks, the animals were sacrificed by means of chloroform and dissected. 6 animals are used per dose.

[2] = Acute toxicity after intraperitoneal administration, mouse; conditions: in vivo, ip, NMRI mouse, 3 weeks, Litchfield and Wilcoxon
Protocol: Acute toxicity after intraperitoneal administration
The acute toxicity after intraperitoneal administration of the test substances was carried out using NMRI mice (20 to 25 g) and SD rats (120 to 195 g). The test substance was suspended in a 1% strength sodium carboxymethyl cellulose solution. The various doses of the test substance were administered to the mice in a volume of 10 ml/kg of body weight and to the rats in a volume of 5 ml/kg of body weight. 10 animals were used per dose. After 3 weeks, the acute toxicity was determined according to the method of Litchfield and Wilcoxon.

Spleen T (con A and PWM) = assay: Mitogen-induced lymphocyte proliferation, Spleen T; type: cell-based; conditions: Mus musculus, T-cell, 64 h, 48 h + 16 h with tritium thymidine, read-out: ED50 (concentration at which a 50% inhibition occurs)
Protocol: (§5) The cell culture in vitro proliferation test was used as an activity test for chemotherapeutics.
(§6) Clicks/RPMI 1640 medium (50:50) containing L-glutamine without any NaHCO3, in the form of powder for 10 1 (Seromed, Biochrom, Berlin, FRG) is dissolved in 9 l of double-distilled water, and sterile filtered into 900 ml bottles.
(§7) 900 ml of base medium are buffered using 9.5 ml of 7.5% strength sodium hydrogencarbonate solution and 5 ml of HEPES (N-2-hydroxyethyl-piperazine-N-2 ethanesulfonic acid) (Gibco, Eggenstein, FRG).
(§8) 900 ml of base medium plus 19 ml of NaHCO3 solution (7.5%; 10 ml of HEPES solution and 10 ml of L-glutamine solution (200 mM)).
(§9) Medium for mitogen-induced lymphocyte proliferation. Working medium containing 1% heat-inactivated (30 min, 56° C.) fetal calf serum (FCS) is prepared.
(§10) The mice are sacrificed by cervical dislocation and the spleens are removed under sterile conditions. The spleens are shredded on a sterile sieve having a mesh width of 80 "mesh" and are carefully transferred to a Petri dish containing working medium using the plunger of a plastic syringe (10 ml). […]
(§11) The group with mitogen additions and without preparation were defined as positive controls. […] The amount of radioactivity incorporated by these cells is measured in a beta counter (Packard, Tricarb 460c).

[3] = system: WEHI 279 mouse B cell lymphoma; assay: Cell proliferation test, WEHI 279; type: cell-based; conditions: 72 h, read-out: ED50 (concentration at which a 50% inhibition occurs)
Protocol: as §5, §6, §7, §8
(§12) For keeping the tumor cells and hybridoma cells, working medium containing 5% FCS is prepared. […]
(§13) The proliferation test was carried out in round bottom microtiter plates. […] In all tests, the values were determined four times. […] The value of the negative control was subtracted from all values determined and the difference of positive control minus negative control was set at 100%.
(§14) The plates were incubated at 37° C./5% CO2 for 72 h and the proliferation rate was determined correspondingly as with the mitogen-induced lymphocyte proliferation. […]

Spleen B (LPS) = assay: Mitogen-induced lymphocyte proliferation, Spleen B; type: cell-based; conditions: Mus musculus, B-cell, 64 h, 48 h + 16 h with tritium thymidine, read-out: ED50 (concentration at which a 50% inhibition occurs)
Protocol: as §5, §6, §7, §8, §9, §10, §11

[4] = system: HT-2 mouse T cell line (IL-2); assay: Cell proliferation test, HT-2; type: cell-based; conditions: 72 h, read-out: ED50 (concentration at which a 50% inhibition occurs)
Protocol: as §5, §6, §7, §8, §12, §13, §14

[5] = system: PB-3C mouse mast cell line (IL-3); assay: Cell proliferation test, PB-3C; type: cell-based; conditions: 72 h, read-out: ED50 (concentration at which a 50% inhibition occurs)
Protocol: as §5, §6, §7, §8, §12, §13, §14

[6] = system: HL-60 human promyelomonocytic leukemia; assay: Cell proliferation test, HL-60; type: cell-based; conditions: 72 h, read-out: ED50 (concentration at which a 50% inhibition occurs)
Protocol: as §5, §6, §7, §8, §12, §13, §14

[7] = system: A431 human epidermoid carcinoma; assay: Cell proliferation test, A431; type: cell-based; conditions: A-431, 72 h, read-out: ED50 (concentration at which a 50% inhibition occurs)
Protocol: as §5, §6, §7, §8, §12, §13, §14

DA-1 mouse tumor (IL-3) = assay: Cell proliferation test, DA-1; type: cell-based; conditions: 72 h, read-out: ED50 (concentration at which a 50% inhibition occurs)
Protocol: as §5, §6, §7, §8, §12, §13, §14

[8] = system: Bone marrow mouse (M-CSF, GM CSF); assay: Cell proliferation test, bone marrow; type: cell-based; conditions: 72 h, read-out: ED50 (concentration at which a 50% inhibition occurs)
Protocol: as §5, §6, §7, §8, §12, §13, §14

[9] = system: Cl 9/4 mouse T cell line (IL-4 dep.); assay: Cell proliferation test, Cl 9/4; type: cell-based; conditions: 72 h, read-out: ED50 (concentration at which a 50% inhibition occurs)
Protocol: as §5, §6, §7, §8, §12, §13, §14

[10] = Acute toxicity on oral administration, mouse; conditions: in vivo, NMRI mouse, 3 weeks, Litchfield and Wilcoxon
Protocol: as §1, §2, §3, §4

[11] = system: A20 2J mouse B cell tumor (BALB/c); assay: Cell proliferation test, A20 2J; type: cell-based; conditions: 72 h, read-out: ED50 (concentration at which a 50% inhibition occurs)
Protocol: as §5, §6, §7, §8, §12, §13, §14

[12] = system: HFF human foreskin fibroblast; assay: Cell proliferation test, HFF; type: cell-based; conditions: 72 h, read-out: ED50 (concentration at which a 50% inhibition occurs)
Protocol: as §5, §6, §7, §8, §12, §13, §14

[13] = system: TRK 5 mouse B cell hybridoma; assay: Cell proliferation test, TRK 5; type: cell-based; conditions: 72 h, read-out: ED50 (concentration at which a 50% inhibition occurs)
Protocol: as §5, §6, §7, §8, §12, §13, §14

[14] = system: TRK 4 mouse B cell hybridoma; assay: Cell proliferation test, TRK 4; type: cell-based; conditions: 72 h, read-out: ED50 (concentration at which a 50% inhibition occurs)
Protocol: as §5, §6, §7, §8, §12, §13, §14

7D4 rat hybridoma = assay: Cell proliferation test, 7D4; type: cell-based; conditions: 72 h, read-out: ED50 (concentration at which a 50% inhibition occurs)
Protocol: as §5, §6, §7, §8, §12, §13, §14

[15] = system: KB human epidermoid carcinoma; assay: Cell proliferation test, KB; type: cell-based; conditions: 72 h, read-out: ED50 (concentration at which a 50% inhibition occurs)
Protocol: as §5, §6, §7, §8, §12, §13, §14

[16] = system: K III 5 mouse T cell line (Th, IL-2); assay: Cell proliferation test, K III 5; type: cell-based; conditions: 72 h, read-out: ED50 (concentration at which a 50% inhibition occurs)
Protocol: as §5, §6, §7, §8, §12, §13, §14

[17] = system: CTL-J-K mouse T cell line (Tc, IL-2); assay: Cell proliferation test, CTL-J-K; type: cell-based; conditions: 72 h, read-out: ED50 (concentration at which a 50% inhibition occurs)
Protocol: as §5, §6, §7, §8, §12, §13, §14

[18] = system: CTLL mouse T cell line (Tc clone IL-2); assay: Cell proliferation test, CTLL; type: cell-based; conditions: 72 h, read-out: ED50 (concentration at which a 50% inhibition occurs)
Protocol: as §5, §6, §7, §8, §12, §13, §14

[19] = system: 7TD1 mouse B cell hybridoma (IL-6); assay: Cell proliferation test, 7TD1; type: cell-based; conditions: 72 h, read-out: ED50 (concentration at which a 50% inhibition occurs)
Protocol: as §5, §6, §7, §8, §12, §13, §14

P 388 D1 mouse Mo tumor = assay: Cell proliferation test, P 388 D1; type: cell-based; conditions: P388D1, 72 h, read-out: ED50 (concentration at which a 50% inhibition occurs)
Protocol: as §5, §6, §7, §8, §12, §13, §14

Work on `C/C(O)=C(\C#N)C(=O)Nc1ccc(C(F)(F)F)cc1` [Compound 2, N-(4-trifluoromethylphenyl)-2-cyano-3-hydroxycrotonamide] yielded an LD50 at 504 h [1] of 160 mg/kg and an LD50 at 504 h [2] of 100 to 200 mg/kg.
In the case of `Cc1oncc1C(=O)Nc1ccc(C(F)(F)F)cc1` [Compound 1, 5-methylisoxazole-4-carboxylic acid (4-trifluoromethyl)anilide], the IC50 (Spleen T (con A and PWM)) is reported as 10 µM, the IC50 [3] is reported as ≤ 1 µM and the IC50 (Spleen B (LPS)) is reported as 10 µM. The LD50 at 504 h [1] was 235 mg/kg, the IC50 [4] was 40 to 50 µM and the IC50 [5] was 20 µM. For the same compound, the IC50 [6] was 25 µM, the IC50 [7] was 15 µM and the IC50 (DA-1 mouse tumor (IL-3)) was 5 µM. The IC50 [8] was 5 µM, the IC50 [9] was 25 µM and the LD50 at 504 h [10] was 445 mg/kg. For the same compound, the IC50 [11] was 1 to 3 µM, the IC50 [12] was 40 µM and the IC50 [13] was 5 µM. For the same compound, the IC50 [14] was 5 µM, the IC50 (7D4 rat hybridoma) was ≤ 1 µM and the IC50 [15] was 15 µM. The IC50 [16] was 1 to 3 µM, the IC50 [17] was 40 to 50 µM and the IC50 [18] was 40 to 50 µM. It also gave an IC50 [19] of 10 µM and an IC50 (P 388 D1 mouse Mo tumor) of 10 µM.
